Results reported in ChEMBL document CHEMBL1201862, “PubChem BioAssay data set” (2004).
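Tested at 5 concentrations; 48 h exposure; 96-well plates; endpoints linearly interpolated, else capped at highest concentration. GI50 is the concentration that inhibits growth by half.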 Calls of active or inactive are those of the source. Rule as the data show it: active = GI50 up to about 1.1 µM and inactive = higher.

What was measured:
Assay in all cases: NCI tumour cell line growth inhibition, 48 h
XF498 = test system: XF498
RXF 631 = test system: RXF 631
DLD-1 = test system: DLD-1
DMS-273 = test system: DMS-273
KM-20L2 = test system: KM-20L2
LXFL 529 = test system: LXFL 529
SNB-78 = test system: SNB-78
M19-MEL = test system: M19-MEL
HOP-18 = test system: HOP-18

Compound	GI50 (XF498)	GI50 (RXF 631)	GI50 (DLD-1)	GI50 (DMS-273)	GI50 (KM-20L2)	GI50 (LXFL 529)	GI50 (SNB-78)	GI50 (M19-MEL)	GI50 (HOP-18)
COc1ccc(/C(=N/Nc2ccccc2)C(c2ccc(OC)cc2)C2OC(=O)c3ccccc32)cc1 (configuration not stated)	> 100 µM (inactive)	> 100 µM (inactive)	> 10 µM (inactive)	> 100 µM (inactive)	36.6 µM (inactive)	–	–	–	–
O=C(CCc1nnc2s/c(=C\c3ccc4c(c3)OCO4)c(=O)n12)Nc1cc(Cl)ccc1Cl	> 100 µM (inactive)	> 100 µM (inactive)	> 100 µM (inactive)	> 55.1 µM (inactive)	> 100 µM (inactive)	> 100 µM (inactive)	> 100 µM (inactive)	> 100 µM (inactive)	> 100 µM (inactive)
CC(=O)Nc1c(C)ccc2c1C(=O)c1ccccc1C2=O	–	–	> 100 µM (inactive)	> 100 µM (inactive)	–	> 100 µM (inactive)	> 100 µM (inactive)	> 100 µM (inactive)	> 100 µM (inactive)
S=C1NC(c2ccccc2)=NC(Cc2ccccc2)(c2ccccc2)N1c1ccccc1 (configuration not stated)	–	> 100 µM (inactive)	> 100 µM (inactive)	–	> 100 µM (inactive)	> 100 µM (inactive)	> 100 µM (inactive)	> 100 µM (inactive)	97.1 µM (inactive)
CN1N=CSC12C(=O)N(c1ccc(Cl)cc1)C(=O)N2c1ccc(Cl)cc1 (configuration not stated)	–	–	4.06 µM (inactive)	–	3.21 µM (inactive)	3.34 µM (inactive)	3.98 µM (inactive)	3.37 µM (inactive)	3.43 µM (inactive)
COc1c(CC(=O)c2ccccc2)c2ccccc2n1C(C)=O	> 100 µM (inactive)	> 100 µM (inactive)	> 100 µM (inactive)	> 100 µM (inactive)	> 100 µM (inactive)	> 100 µM (inactive)	> 100 µM (inactive)	> 100 µM (inactive)	> 100 µM (inactive)
O=C1C(Cl)C(c2ccc(Cl)cc2)N1n1cnc2ccccc2c1=O (configuration not stated)	80.7 µM (inactive)	–	> 100 µM (inactive)	30.3 µM (inactive)	> 100 µM (inactive)	72.4 µM (inactive)	> 100 µM (inactive)	> 100 µM (inactive)	57.5 µM (inactive)
COC1C(O)CC(OC2CC(OC3CC(O[C@@H]4C(=O)c5c(cc6cc(OC7CC(OC8CC(O)C(O)C(C)O8)C(O)C(C)O7)c(C)c(O)c6c5O)C[C@H]4[C@H](OC)C(=O)[C@@H](O)[C@@H](C)O)OC(C)C3O)OC(C)C2O)OC1C (some centres not stated)	< 0.01 µM (active)	–	0.177 µM (active)	< 0.0168 µM (active)	0.0223 µM (active)	0.0129 µM (active)	< 0.01 µM (active)	0.0109 µM (active)	0.0211 µM (active)
O=C1N(Cl)C(=O)C(c2ccc(Cl)cc2)(c2ccc(Cl)cc2)N1Cl	> 100 µM (inactive)	–	62.2 µM (inactive)	> 100 µM (inactive)	> 100 µM (inactive)	63 µM (inactive)	–	39.7 µM (inactive)	> 100 µM (inactive)
Cn1cc2ccccc2c1-c1nc(N)nc(F)n1	> 100 µM (inactive)	> 100 µM (inactive)	> 100 µM (inactive)	> 100 µM (inactive)	> 100 µM (inactive)	> 100 µM (inactive)	> 100 µM (inactive)	54.3 µM (inactive)	–
CS(=O)(=O)OCCN(CCOS(C)(=O)=O)c1ccc(/C=N/N=c2/nc[nH]c3nc[nH]c23)cc1	21.2 µM (inactive)	–	26.8 µM (inactive)	14.9 µM (inactive)	21.5 µM (inactive)	–	24.2 µM (inactive)	20.5 µM (inactive)	34.6 µM (inactive)
COc1ccc2nc(NC(=O)C(=O)C(C#N)c3ccc(CC#N)cc3)sc2c1 (configuration not stated)	–	–	> 100 µM (inactive)	> 100 µM (inactive)	> 100 µM (inactive)	> 100 µM (inactive)	> 100 µM (inactive)	> 100 µM (inactive)	> 100 µM (inactive)
CCOC(=O)C(NC(=O)c1ccc(/N=N/N(C)C)cc1)C(C)C (configuration not stated)	–	–	> 100 µM (inactive)	> 100 µM (inactive)	–	> 100 µM (inactive)	–	–	–
C/N=C(/NC)N(C)c1nc(=[N+](C)C)ss1.[O-][Cl+3]([O-])([O-])[O-]	–	–	–	36.2 µM (inactive)	–	> 100 µM (inactive)	82.8 µM (inactive)	–	–
CCOc1ccc(NC(=O)C(=O)C(C(=O)c2ccc3ccccc3c2)C2OC(=O)c3ccccc32)cc1 (configuration not stated)	13.8 µM (inactive)	–	7.87 µM (inactive)	7.35 µM (inactive)	37.6 µM (inactive)	6.9 µM (inactive)	4.91 µM (inactive)	13.4 µM (inactive)	17.7 µM (inactive)
O=C1c2cc(CCl)sc2C(=O)c2ccsc21	1.73 µM (inactive)	–	0.933 µM (active)	0.306 µM (active)	1.45 µM (inactive)	0.243 µM (active)	0.292 µM (active)	< 0.01 µM (active)	0.264 µM (active)
O=S1(=O)OCCOS(=O)(=O)C1(I)I	18 µM (inactive)	–	16.9 µM (inactive)	20.6 µM (inactive)	–	11 µM (inactive)	23.2 µM (inactive)	17.7 µM (inactive)	–
CCOC(=O)c1cc(OC(=O)CC)c2c(OC)ccc(OC)c2c1	> 100 µM (inactive)	–	> 100 µM (inactive)	35.5 µM (inactive)	> 10 µM (inactive)	37.8 µM (inactive)	–	67.6 µM (inactive)	> 100 µM (inactive)
CNC(=O)C(C)Oc1ccc(OCC2CCCCC2)cc1 (configuration not stated)	–	–	> 100 µM (inactive)	> 100 µM (inactive)	–	77.4 µM (inactive)	> 100 µM (inactive)	> 100 µM (inactive)	16.3 µM (inactive)
CNC(=O)NCCCCC(NC(=O)OCc1ccccc1)C(=O)OCc1ccccc1 (configuration not stated)	18.3 µM (inactive)	23.6 µM (inactive)	38.2 µM (inactive)	48.8 µM (inactive)	> 100 µM (inactive)	32.1 µM (inactive)	25.4 µM (inactive)	21.8 µM (inactive)	–
O=C(C#Cc1ccccc1)NC/C=C/c1ccccc1	–	–	43.1 µM (inactive)	–	44.9 µM (inactive)	38.2 µM (inactive)	29.9 µM (inactive)	60.1 µM (inactive)	> 100 µM (inactive)
CC/C(=N/O)C(C)C(=O)CCC(=O)Nc1ccc(Cl)cc1 (configuration not stated)	> 100 µM (inactive)	–	> 100 µM (inactive)	> 100 µM (inactive)	> 100 µM (inactive)	54.3 µM (inactive)	> 100 µM (inactive)	> 100 µM (inactive)	> 100 µM (inactive)
CC(C)(C)c1cc(C(O)(C(F)(F)F)C(F)(F)F)c2c(c1)C(C(F)(F)F)(C(F)(F)F)OC(c1ccccc1)(C(C)(C)C)N2 (configuration not stated)	3.6 µM (inactive)	–	3.76 µM (inactive)	3.61 µM (inactive)	4.92 µM (inactive)	3.28 µM (inactive)	8.28 µM (inactive)	3.56 µM (inactive)	0.515 µM (active)
Nc1nc[n+](Cc2ccccc2CCO)c2[nH]cnc12	> 100 µM (inactive)	> 100 µM (inactive)	–	> 100 µM (inactive)	> 100 µM (inactive)	> 100 µM (inactive)	–	> 100 µM (inactive)	> 100 µM (inactive)
CCCCCCCCCCCCCP(=O)(O)NCC(N)=O	64.6 µM (inactive)	84.3 µM (inactive)	43.9 µM (inactive)	–	98.6 µM (inactive)	54.3 µM (inactive)	–	80.7 µM (inactive)	22 µM (inactive)
C#CC1(O)CCC2[C@@H]3CCc4cc(Oc5nc(F)nc(-c6c7ccccc7cn6C)n5)ccc4C3CC[C@@]21C (some centres not stated)	> 100 µM (inactive)	–	> 48.2 µM (inactive)	> 66.1 µM (inactive)	> 100 µM (inactive)	> 100 µM (inactive)	> 100 µM (inactive)	> 100 µM (inactive)	> 100 µM (inactive)
COc1cccc2c1[C@]1(O)C(O)CCCC21 (some centres not stated)	–	–	> 100 µM (inactive)	> 100 µM (inactive)	> 100 µM (inactive)	> 100 µM (inactive)	> 100 µM (inactive)	> 100 µM (inactive)	90.4 µM (inactive)
